{"source": "patent US20100267561A1", "about": "“HERBICIDAL PYRIDAZINONE DERIVATIVES” (priority 2007, published 2010)", "format_in_all_cases": "in vivo", "key": {"wild oat (Avena fatua)": {"tested_on": "wild oat (Avena fatua)", "experiment": "Test C pre-/postemergence plant response", "settings": "Preemergence", "description": "(§1) Seeds of plant species selected from annual bluegrass (Poa annua), blackgrass (Alopecurus myosuroides), canola (Brassica rapa), downy bromegrass (Bromus tectorum), green foxtail (Setaria viridis), Italian ryegrass (Lolium multiflorum), canarygrass (Phalaris minor), pigweed (Amaranthus retroflexus), spring barley (Hordeum vulgare), spring wheat (Triticum aestivum), wild mustard (Sinapis arvensis), wild oat (Avena fatua), windgrass (Apera spica-venti), winter barley (Hordeum vulgare), and winter wheat (Triticum aestivum) were planted and treated preemergence with test chemicals formulated in a non-phytotoxic solvent mixture which included a surfactant. At the same time, plants selected from these crop and weed species were treated with postemergence applications of some of the test chemicals formulated in the same manner. Plants ranged in height from 2 to 18 cm (1- to 4-leaf stage) for postemergence treatments.\n(§2) Treated plants and controls were maintained in a controlled growth environment for 15 to 25 days after which time all species were compared to controls and visually evaluated. Plant response ratings, summarized in Table C, are based on a scale of 0 to 100 where 0 is no effect and 100 is complete control. A dash (-) response means no test result."}, "[1]": {"tested_on": "green foxtail (Setaria viridis)", "experiment": "Test C pre-/postemergence plant response", "settings": "Preemergence", "description": "as §1, §2"}, "[2]": {"tested_on": "downy bromegrass (Bromus tectorum)", "experiment": "Test C pre-/postemergence plant response", "settings": "Preemergence", "description": "as §1, §2"}, "[3]": {"tested_on": "canarygrass (Phalaris minor)", "experiment": "Test C pre-/postemergence plant response", "settings": "Preemergence", "description": "as §1, §2"}, "[4]": {"tested_on": "Italian ryegrass (Lolium multiflorum)", "experiment": "Test C pre-/postemergence plant response", "settings": "Preemergence", "description": "as §1, §2"}, "[5]": {"tested_on": "annual bluegrass (Poa annua)", "experiment": "Test C pre-/postemergence plant response", "settings": "Preemergence", "description": "as §1, §2"}, "[6]": {"tested_on": "pigweed (Amaranthus retroflexus)", "experiment": "Test C pre-/postemergence plant response", "settings": "Preemergence", "description": "as §1, §2"}, "[7]": {"tested_on": "blackgrass (Alopecurus myosuroides)", "experiment": "Test C pre-/postemergence plant response", "settings": "Preemergence", "description": "as §1, §2"}, "[8]": {"tested_on": "winter wheat (Triticum aestivum)", "experiment": "Test C pre-/postemergence plant response", "settings": "Preemergence", "description": "as §1, §2"}, "[9]": {"tested_on": "spring barley (Hordeum vulgare)", "experiment": "Test C pre-/postemergence plant response", "settings": "Preemergence", "description": "as §1, §2"}, "[10]": {"tested_on": "woolly cupgrass (Eriochloa villosa)", "experiment": "Test B pre-/postemergence plant response", "summary_of_the_method": "(§3)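 Preemergence and postemergence (plants 2-18 cm, 1- to 4-leaf stage) applications used test chemicals in a non-phytotoxic solvent with surfactant. Plants were held in a greenhouse 13 to 15 days, then rated visually against controls on a 0-100 scale (0 no effect, 100 complete control).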"}, "[11]": {"tested_on": "large crabgrass (Digitaria sanguinalis)", "experiment": "Test B pre-/postemergence plant response", "summary_of_the_method": "as §3"}, "[12]": {"settings": "8 g ai/ha, scale 0 to 100 (0 no effect, 100 complete control)"}, "[13]": {"settings": "16 g ai/ha, scale 0 to 100 (0 no effect, 100 complete control)"}, "[14]": {"settings": "31 g ai/ha, scale 0 to 100 (0 no effect, 100 complete control)"}, "[15]": {"settings": "62 g ai/ha, scale 0 to 100, 0 no effect, 100 complete control"}, "[16]": {"settings": "8 g ai/ha, postemergence, 0-100 scale"}, "[17]": {"settings": "Postemergence, 16 g ai/ha, scale 0 to 100"}, "[18]": {"settings": "Postemergence, 31 g ai/ha, scale 0 to 100, 0 no effect, 100 complete control"}, "[19]": {"settings": "Postemergence, 62 g ai/ha, scale 0 to 100, 0 no effect, 100 complete control"}, "[20]": {"settings": "Preemergence, 16 g ai/ha, scale 0 to 100 (0 no effect, 100 complete control)"}, "[21]": {"settings": "Preemergence, 31 g ai/ha, 0 to 100 scale, 0 no effect, 100 complete control"}, "[22]": {"settings": "Preemergence, 62 g ai/ha, scale 0 to 100"}, "[23]": {"settings": "Preemergence, 8 g ai/ha, scale 0 to 100"}, "[24]": {"settings": "Preemergence, 16 g ai/ha, scale 0 to 100"}}, "note": "Like-named read-outs stand apart in the source and are kept apart here."}
{"molecule": "COC(=O)Oc1cnn(C)c(=O)c1-n1nc(-c2ccc(Cl)cc2)cc1C", "note": "[Compound 33]", "values": [{"measurement": "Plant response rating, Oat, Wild", "setting": "wild oat (Avena fatua); [12]", "value": 0}, {"measurement": "Plant response rating, Oat, Wild", "setting": "wild oat (Avena fatua); [13]", "value": 25}, {"measurement": "Plant response rating, Oat, Wild", "setting": "wild oat (Avena fatua); [14]", "value": 60}, {"measurement": "Plant response rating, Oat, Wild", "setting": "wild oat (Avena fatua); [15]", "value": 75}, {"measurement": "Plant response rating, Foxtail, Green", "setting": "[1]; [12]", "value": 15}, {"measurement": "Plant response rating, Foxtail, Green", "setting": "[1]; [13]", "value": 95}, {"measurement": "Plant response rating, Foxtail, Green", "setting": "[1]; [14]", "value": 100}, {"measurement": "Plant response rating, Foxtail, Green", "setting": "[1]; [15]", "value": 100}, {"measurement": "Plant response rating, Bromegrass, Downy", "setting": "[2]; [12]", "value": 0}, {"measurement": "Plant response rating, Bromegrass, Downy", "setting": "[2]; [13]", "value": 35}, {"measurement": "Plant response rating, Bromegrass, Downy", "setting": "[2]; [14]", "value": 35}, {"measurement": "Plant response rating, Bromegrass, Downy", "setting": "[2]; [15]", "value": 60}, {"measurement": "Plant response rating, Canarygrass", "setting": "[3]; [12]", "value": 0}, {"measurement": "Plant response rating, Canarygrass", "setting": "[3]; [13]", "value": 10}, {"measurement": "Plant response rating, Canarygrass", "setting": "[3]; [14]", "value": 65}, {"measurement": "Plant response rating, Canarygrass", "setting": "[3]; [15]", "value": 90}, {"measurement": "Plant response rating, Ryegrass, Italian", "setting": "[4]; [12]", "value": 10}, {"measurement": "Plant response rating, Ryegrass, Italian", "setting": "[4]; [13]", "value": 65}, {"measurement": "Plant response rating, Ryegrass, Italian", "setting": "[4]; [14]", "value": 100}, {"measurement": "Plant response rating, Ryegrass, Italian", "setting": "[4]; [15]", "value": 100}, {"measurement": "Plant response rating, Bluegrass", "setting": "[5]; [12]", "value": 0}, {"measurement": "Plant response rating, Bluegrass", "setting": "[5]; [13]", "value": 0}, {"measurement": "Plant response rating, Bluegrass", "setting": "[5]; [14]", "value": 0}, {"measurement": "Plant response rating, Bluegrass", "setting": "[5]; [15]", "value": 0}, {"measurement": "Plant response rating, Pigweed", "setting": "[6]; [13]", "value": 0}, {"measurement": "Plant response rating, Pigweed", "setting": "[6]; [14]", "value": 0}, {"measurement": "Plant response rating, Pigweed", "setting": "[6]; [15]", "value": 0}, {"measurement": "Plant response rating, Blackgrass", "setting": "[7]; [12]", "value": 0}, {"measurement": "Plant response rating, Blackgrass", "setting": "[7]; [13]", "value": 50}, {"measurement": "Plant response rating, Blackgrass", "setting": "[7]; [14]", "value": 80}, {"measurement": "Plant response rating, Blackgrass", "setting": "[7]; [15]", "value": 100}, {"measurement": "Plant response rating, Wheat, Winter", "setting": "[8]; [12]", "value": 0}, {"measurement": "Plant response rating, Wheat, Winter", "setting": "[8]; [13]", "value": 0}, {"measurement": "Plant response rating, Wheat, Winter", "setting": "[8]; [14]", "value": 15}, {"measurement": "Plant response rating, Wheat, Winter", "setting": "[8]; [15]", "value": 40}, {"measurement": "Plant response rating, Barley, Spring", "setting": "[9]; [12]", "value": 0}, {"measurement": "Plant response rating, Barley, Spring", "setting": "[9]; [13]", "value": 0}, {"measurement": "Plant response rating, Barley, Spring", "setting": "[9]; [14]", "value": 10}, {"measurement": "Plant response rating, Barley, Spring", "setting": "[9]; [15]", "value": 25}, {"measurement": "Cupgrass, Woolly plant response rating", "setting": "[10]; [16]", "value": 98}, {"measurement": "Plant response rating, Cupgrass, Woolly", "setting": "[10]; [17]", "value": 100}, {"measurement": "Plant response rating, Cupgrass, Woolly", "setting": "[10]; [18]", "value": 100}, {"measurement": "Plant response rating, Cupgrass, Woolly", "setting": "[10]; [19]", "value": 100}, {"measurement": "Plant response rating, Cupgrass, Woolly", "setting": "[10]; [20]", "value": 90}, {"measurement": "Plant response rating, Cupgrass, Woolly", "setting": "[10]; [21]", "value": 100}, {"measurement": "Plant response rating, Cupgrass, Woolly", "setting": "[10]; [22]", "value": 100}, {"measurement": "Cupgrass, Woolly plant response rating", "setting": "[10]; [23]", "value": 80}, {"measurement": "Crabgrass, Large plant response rating", "setting": "[11]; [16]", "value": 70}, {"measurement": "Plant response rating, Crabgrass, Large", "setting": "[11]; [17]", "value": 90}, {"measurement": "Plant response rating, Crabgrass, Large", "setting": "[11]; [18]", "value": 90}, {"measurement": "Plant response rating, Crabgrass, Large", "setting": "[11]; [19]", "value": 100}, {"measurement": "Plant response rating, Crabgrass, Large", "setting": "[11]; [20]", "value": 95}, {"measurement": "Plant response rating, Crabgrass, Large", "setting": "[11]; [21]", "value": 95}, {"measurement": "Plant response rating, Crabgrass, Large", "setting": "[11]; [22]", "value": 98}, {"measurement": "Crabgrass, Large plant response rating", "setting": "[11]; [23]", "value": 70}]}
{"molecule": "Cc1nn(C)c(=O)c(-n2nc(-c3ccc(C(F)(F)F)cc3)cc2C)c1O", "note": "[Compound 75, 5-hydroxy-2,6-dimethyl-4-[5-methyl-3-[4-(trifluoromethyl)phenyl]-1H-pyrazol-1-yl]-3(2H)-pyridazinone]", "values": [{"measurement": "Cupgrass, Woolly plant response rating", "setting": "[10]; [16]", "value": 20}, {"measurement": "pest or weed control at 16 g/ha", "setting": "[10]; Eriochloa villosa, post-emergence, Postemergence, 16 g ai/ha, scale 0 to 100, read-out: Plant response rating, Cupgrass, Woolly", "value": 65, "unit": "%"}, {"measurement": "pest or weed control at 31 g/ha", "setting": "[10]; Eriochloa villosa, post-emergence, Postemergence, 31 g ai/ha, scale 0 to 100, read-out: Plant response rating, Cupgrass, Woolly", "value": 65, "unit": "%"}, {"measurement": "pest or weed control at 62 g/ha", "setting": "[10]; Eriochloa villosa, post-emergence, Postemergence, 62 g ai/ha, scale 0 to 100, 0 no effect, 100 complete control, read-out: Plant response rating, Cupgrass, Woolly", "value": 75, "unit": "%"}, {"measurement": "pest or weed control at 31 g/ha", "setting": "[10]; Eriochloa villosa, pre-emergence, Preemergence, 31 g ai/ha, scale 0 to 100 (0 no effect, 100 complete control), read-out: Plant response rating, Cupgrass, Woolly", "value": 65, "unit": "%"}, {"measurement": "pest or weed control at 62 g/ha", "setting": "[10]; Eriochloa villosa, pre-emergence, Preemergence, 62 g ai/ha, 0 to 100 scale, 0 no effect, 100 complete control, read-out: Plant response rating, Cupgrass, Woolly", "value": 75, "unit": "%"}, {"measurement": "Cupgrass, Woolly plant response rating", "setting": "[10]; [23]", "value": 0}, {"measurement": "Cupgrass, Woolly plant response rating", "setting": "[10]; [24]", "value": 0}, {"measurement": "Crabgrass, Large plant response rating", "setting": "[11]; [16]", "value": 0}, {"measurement": "pest or weed control at 16 g/ha", "setting": "[11]; Digitaria sanguinalis, post-emergence, Postemergence, 16 g ai/ha, scale 0 to 100, read-out: Plant response rating, Crabgrass, Large", "value": 0, "unit": "%"}, {"measurement": "pest or weed control at 31 g/ha", "setting": "[11]; Digitaria sanguinalis, post-emergence, Postemergence, 31 g ai/ha, scale 0 to 100, read-out: Plant response rating, Crabgrass, Large", "value": 30, "unit": "%"}, {"measurement": "pest or weed control at 62 g/ha", "setting": "[11]; Digitaria sanguinalis, post-emergence, Postemergence, 62 g ai/ha, scale 0 to 100, 0 no effect, 100 complete control, read-out: Plant response rating, Crabgrass, Large", "value": 60, "unit": "%"}, {"measurement": "pest or weed control at 31 g/ha", "setting": "[11]; Digitaria sanguinalis, pre-emergence, Preemergence, 31 g ai/ha, scale 0 to 100 (0 no effect, 100 complete control), read-out: Plant response rating, Crabgrass, Large", "value": 25, "unit": "%"}, {"measurement": "pest or weed control at 62 g/ha", "setting": "[11]; Digitaria sanguinalis, pre-emergence, Preemergence, 62 g ai/ha, 0 to 100 scale, 0 no effect, 100 complete control, read-out: Plant response rating, Crabgrass, Large", "value": 55, "unit": "%"}, {"measurement": "Crabgrass, Large plant response rating", "setting": "[11]; [23]", "value": 0}, {"measurement": "Crabgrass, Large plant response rating", "setting": "[11]; [24]", "value": 0}]}
